Experiments:
human TPST2 [1] = target: T1, human TPST2 (Homo sapiens, UniProt O60704); assay: EZ Reader II microfluidic mobility-shift CC4-tide sulfation assay, TPST2; assay type: biochemical
T1 construct: TPST2 (residues Gly43–Leu359) enzymes lacking the transmembrane domains; made in house; host or cells: E. coli BL21 (DE3) pLysS
T1 sequence (O60704 43-359): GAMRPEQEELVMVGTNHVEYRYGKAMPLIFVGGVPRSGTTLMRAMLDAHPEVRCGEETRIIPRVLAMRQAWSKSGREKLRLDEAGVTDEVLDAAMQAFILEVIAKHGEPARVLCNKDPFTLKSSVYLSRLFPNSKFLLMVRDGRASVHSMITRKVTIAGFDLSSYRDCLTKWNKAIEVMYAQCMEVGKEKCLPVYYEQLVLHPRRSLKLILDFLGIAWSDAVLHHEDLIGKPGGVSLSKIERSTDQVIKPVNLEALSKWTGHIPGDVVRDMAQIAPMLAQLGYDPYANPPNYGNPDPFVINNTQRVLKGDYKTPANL

human TPST1 [2] = target: T2, human TPST1 (Homo sapiens, UniProt O60507); assay: EZ Reader II microfluidic mobility-shift CC4-tide sulfation assay, TPST1; assay type: biochemical; settings: 10 µM PAPS
T2 construct: human TPST1 (residues Lys43–Leu360) and TPST2 (residues Gly43–Leu359) enzymes lacking the transmembrane domains; made in house; host or cells: E. coli BL21 (DE3) pLysS
T2 sequence (O60507 43-360): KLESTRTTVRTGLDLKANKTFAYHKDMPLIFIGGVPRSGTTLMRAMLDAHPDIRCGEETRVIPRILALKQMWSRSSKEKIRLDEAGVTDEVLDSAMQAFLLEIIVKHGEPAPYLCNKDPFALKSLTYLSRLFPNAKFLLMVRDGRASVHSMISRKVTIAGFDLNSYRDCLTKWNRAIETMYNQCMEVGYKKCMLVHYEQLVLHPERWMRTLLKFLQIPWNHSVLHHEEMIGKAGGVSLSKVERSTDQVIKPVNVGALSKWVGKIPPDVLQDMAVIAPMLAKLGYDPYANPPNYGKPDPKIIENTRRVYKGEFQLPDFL

[3] = tested on: heparin sulfate 2-O sulfotransferase HS2ST; parameters: method as in PMID 29934491; settings: cited from earlier work
human TPST1 [4] = target: T2, human TPST1; assay: Differential scanning fluorimetry (thermal shift) assay with TPST1; assay type: binding; settings: DSF, TPST1 5 µM, 10 µM rottlerin
human TPST1 [5] = target: T2, human TPST1; assay: GST-CC4-tide tyrosine sulfation by TPST1, immunoblotting with monoclonal sulfotyrosine antibody; assay type: biochemical; settings: GST-CC4-tide 1 µg, 10 µM PAPS, increasing concentrations of inhibitor
Method: After the assay, proteins were denatured in Laemmli sample buffer, heated at 95°C for 5 min and then analysed by SDS–PAGE with 10% (v/v) polyacrylamide gels. Gels were stained and destained using a standard Coomassie Brilliant Blue protocol. To evaluate protein sulfation and phosphorylation by immunoblotting, standard western blotting procedures were followed using monoclonal anti-sulfotyrosine antibody clone Sulfo-1C-A2 (Millipore) generated using a phage display procedure and sulfotyrosine selection peptide antigens in the presence of appropriate positive and negative controls, and modifications visualised using the ECL reagent.

human TPST2 [6] = target: T1, human TPST2; assay: Differential scanning fluorimetry (thermal shift) assay with TPST2; assay type: binding; settings: DSF, TPST2 5 µM, 10 µM rottlerin

CC(=O)c1c(O)c(C)c(O)c(Cc2c(O)c3c(c(C(=O)/C=C/c4ccccc4)c2O)OC(C)(C)C=C3)c1O [Rottlerin]
IC50 (human TPST2 [1]): 1140 nM | IC50 (human TPST1 [2]; TPST1 IC50 (rottlerin dose-response), Fig 6A, CC4-tide, normalised to 1% DMSO): 500 nM | IC50 (human TPST1 [2]; TPST1 IC50, previously described compounds, Fig 6C, CC4-tide, normalised to 1% DMSO): ~1000 nM | IC50 (human TPST1 [2]; TPST1 estimated IC50, RAF kinase inhibitors, Fig 8B, TPST1 0.1 µM pre-incubated with compound): 600 nM | HS2ST inhibition in vitro (in words) [3]: inhibitory activity | Thermal shift of TPST1 (in words) (human TPST1 [4]): positive | Inhibition of GST-CC4-tide tyrosine sulfation by TPST1 (immunoblot, in words) (human TPST1 [5]): dose-dependent inhibition | Thermal shift of TPST2 (in words) (human TPST2 [6]): positive

Reference: article PMC6094398, “New tools for evaluating protein tyrosine sulfation: tyrosylprotein sulfotransferases (TPSTs) are novel targets for RAF protein kinase inhibitors” (Biochemical Journal, 2018)
